How the values were obtained:
Assay type in all cases: in vivo, BALB/c mice
[1] = tested on: inflammatory cell recruitment in bronchoalveolar lavage; assay: Bronchoalveolar lavage cell counts, OVA allergic inflammation model
Method: All experiments used female BALB/c mice, 6- to 8-weeks-old. Mice were kept in individually ventilated cages and all experiments were conducted under UK Home Office guidelines. Mice were sensitized (day 0) and boosted (day 14) i.p. with 20 μg OVA (Grade V, Sigma) adsorbed to 9% potassium alum. Mice were either challenged on day 28 and 30 with 50 μg OVA or PBS by the intratracheal route or were challenged with 1% OVA or PBS by aerosol for 30 min on day 28 to day 30. […] Necropsies were performed 24 hr after the final airway challenge. […] Total cell numbers were counted and cytospins prepared for differential cell counts, which were assessed by morphology following Diff Quick staining ([…]). BALF was centrifuged at 1200 × g and supernatant stored at -20°C for further analysis.

[2] = tested on: OVA-specific tLN cell cultures; assay: Cytokine and chemokine secretion from draining tLN cell cultures (Luminex)
Method: All experiments used female BALB/c mice, 6- to 8-weeks-old. Mice were kept in individually ventilated cages and all experiments were conducted under UK Home Office guidelines. Mice were sensitized (day 0) and boosted (day 14) i.p. with 20 μg OVA (Grade V, Sigma) adsorbed to 9% potassium alum. Mice were either challenged on day 28 and 30 with 50 μg OVA or PBS by the intratracheal route or were challenged with 1% OVA or PBS by aerosol for 30 min on day 28 to day 30. […] Necropsies were performed 24 hr after the final airway challenge.
The draining thoracic lymph nodes (tLN) were dissected and single-cell suspensions made before being plated out at 1 × 10^6 cells/mL in 96-well plates (RPMI 1640 supplemented with L-glutamine, penicillin streptomycin, and FCS). Cells were stimulated with 500 μg/mL OVA and incubated for 72 hr at 37°C, 5% CO2. MIP-1α levels were measured in cell-free supernatants using a Luminex kit (Invitrogen) and samples were read with a Luminex 100 multiplex bead array system.

[3] = tested on: lung tissue gene expression; assay: Lung mRNA expression by quantitative RT-PCR, OVA model
Method: All experiments used female BALB/c mice, 6- to 8-weeks-old. Mice were kept in individually ventilated cages and all experiments were conducted under UK Home Office guidelines. Mice were sensitized (day 0) and boosted (day 14) i.p. with 20 μg OVA (Grade V, Sigma) adsorbed to 9% potassium alum. Mice were either challenged on day 28 and 30 with 50 μg OVA or PBS by the intratracheal route or were challenged with 1% OVA or PBS by aerosol for 30 min on day 28 to day 30. […] Necropsies were performed 24 hr after the final airway challenge. One part of the left lobe of the lung, removed following BALF, was stored in RNAlater (Ambion) at 4°C for up to 4 weeks. Lung samples were homogenized in RLT lysis buffer using TissueLyser (QIAGEN) and total RNA extracted using RNeasy mini spin columns (QIAGEN). RNA (1 μg) was used for synthesis of cDNA using Moloney murine leukemia virus reverse transcriptase. Relative quantification of genes was carried out by RT-PCR using the Roche Lightcycler, as previously described ([Nair et al., 2005]). PCR amplication was analyzed using 2nd derivative Maximum alogarithm (LightCycler 480 SW 1.5, Roche) and the expression of the gene of interest was normalized to the housekeeping gene, GAPDH. Primer sequences used were as follows: GAPDH-For [NT], Rev [NT]1-For [NT], Rev [NT] Collagen I-For [NT], Rev [NT]-1α-For [NT], Rev […]-12-For [NT], Rev [NT]; and TIMP-1-For [NT], Rev [NT]

[4] = tested on: ventilatory function (penH); assay: Ventilatory function (penH) after methacholine, whole-body plethysmography
Method: All experiments used female BALB/c mice, 6- to 8-weeks-old. Mice were kept in individually ventilated cages and all experiments were conducted under UK Home Office guidelines. Mice were sensitized (day 0) and boosted (day 14) i.p. with 20 μg OVA (Grade V, Sigma) adsorbed to 9% potassium alum. Mice were either challenged on day 28 and 30 with 50 μg OVA or PBS by the intratracheal route or were challenged with 1% OVA or PBS by aerosol for 30 min on day 28 to day 30. […] Necropsies were performed 24 hr after the final airway challenge. […] Briefly, conscious mice were placed in individual chambers for a 10 min acclimatization period. Spontaneous breathing patterns in mice relate to changes in chamber air pressure, which are measured by a transducer attached to the chamber wall. Differences in the rates of pressure change during peak inspiration and peak expiration and the timing of expiration are used to calculate penH according to the following equation; penH = ((expiratory time/relaxation time) – 1) × (peak expiratory flow (mL/s)/peak inspiratory flow (ml/s)). PenH measurements are not used as a quantitative measurement that relates to airway size and rather reflect changes to ventilation following bronchoconstriction. Baseline measurements of penH were made following an aerosol of PBS. […]

[5] = 5 mg/kg i.p., OVA-challenged mice
[6] = 1 and 5 mg/kg i.p., allergic animals

`Cn1cnc2c1c(=O)n(CCCn1c(=O)c3[nH]cnc3n(C)c1=O)c(=O)n2C` [bisdionin F] was tested, and the “increase in neutrophil cell number in BALF vs vehicle-treated OVA-challenged mice” value ([1]; 5 mg/kg i.p.) was 4 fold, the “number of eosinophils in BALF” value [1, 5] was “reduction” and the “number of lymphocytes in BALF” value [1, 5] was “reduction”. The “total cell airway infiltrates (BALF)” value ([1]; 5 mg/kg i.p., OVA-challenged mice, vs vehicle, p < 0.01) was “significantly reduced”, the “total cell numbers (BALF) in PBS-challenged animals” value ([1]; 5 mg/kg i.p., PBS-challenged mice) was “not altered” and the “eosinophilia of OVA-challenged mice” value ([1]; 1 and 5 mg/kg i.p.) was “reduced”. For the same compound, the “increase in neutrophil cell number in BALF” value ([1]; 1 and 5 mg/kg i.p., OVA-challenged mice) was 2- to 4 fold, the “reduction of eosinophil recruitment” value ([1]; doses that decreased penH in allergic animals) was “approximately 50%” and the “MIP-1α secretion from tLN cell cultures” value ([2]; 5 mg/kg i.p., OVA-challenged animals, 72 hr culture) was “enhanced”. The “IL-17 secretion in tLN cultures” value ([2]; allergic mice, data not shown) was “not significantly altered”, the “KC secretion in tLN cultures” value ([2]; allergic mice, data not shown) was “not significantly altered” and the “MIP-1α mRNA expression in lung” value ([3]; 5 mg/kg i.p., OVA-challenged animals) was “enhanced”. For the same compound, the “MMP-12 mRNA expression in lung” value [3, 6] was “significantly increased”, the “TIMP-1 mRNA expression in lung” value [3, 6] was “downregulated” and the “Ym1 mRNA expression in lung” value [3, 6] was “significantly increased”. The “procollagen I mRNA expression in lung” value [3, 6] was “significantly increased”, the “enhancement of the ratio of MMP:TIMP expression” value ([3]; MMP-12:TIMP-1 mRNA, allergic animals) was 2.5 fold and the “penH in PBS-challenged animals” value ([4]; 5 mg/kg, data not shown) was “no effect”. For the same compound, the “penH in allergic mice” value ([4]; 1 and 5 mg/kg i.p., highest concentration of methacholine) was “significantly reduced”.

Reference: PMC3115046, “Analyzing Airway Inflammation with Chemical Biology: Dissection of Acidic Mammalian Chitinase Function with a Selective Drug-like Inhibitor” (Chemistry & Biology, 2011)
